# Reference: US8119624B2, “Fused phenyl amido heterocyclic compounds” (Pfizer Inc., priority 2006, dated 2012)
# Molecular target: T1, Full-length glucokinase (beta cell isoform) (Homo sapiens, UniProt P35557)
# T1 construct: Full-length glucokinase (beta cell isoform) was His-tagged at N-terminus; His tag (N); made in house
# T1 sequence (P35557 1-465): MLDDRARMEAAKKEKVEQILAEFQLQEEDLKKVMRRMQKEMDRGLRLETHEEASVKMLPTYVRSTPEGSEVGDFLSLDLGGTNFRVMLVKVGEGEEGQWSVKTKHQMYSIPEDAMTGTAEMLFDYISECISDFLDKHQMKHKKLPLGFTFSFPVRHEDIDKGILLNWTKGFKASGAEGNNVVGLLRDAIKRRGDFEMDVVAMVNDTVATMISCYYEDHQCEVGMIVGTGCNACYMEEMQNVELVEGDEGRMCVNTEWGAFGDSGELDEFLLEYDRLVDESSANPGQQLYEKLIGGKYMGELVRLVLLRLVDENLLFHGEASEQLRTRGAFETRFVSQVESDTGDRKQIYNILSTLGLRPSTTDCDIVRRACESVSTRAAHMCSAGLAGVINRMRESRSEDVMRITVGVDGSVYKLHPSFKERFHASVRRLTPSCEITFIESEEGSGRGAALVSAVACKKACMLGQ
# Experiment: Glucokinase biochemical assay (PK/LDH-coupled, NADH depletion at 340 nm): % activation, EC50, % max activation
# Conditions: 5 mM glucose; for activation at 10 µM: read-out: % Activation at 10 uM; for EC50: GK activation, read-out: EC50; for Emax: read-out: % Max Activation
# Method in brief: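 Activation expressed as (Va/Vo−1)×100, where initial rates with and without compound come from NADH depletion at 340 nm over 200–900 s. Enzyme is His-tagged human beta-cell GK, full length, run at room temperature in HEPES buffer with 1 mM ATP and 5 mM glucose. DMSO 1%.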
# [1] = 10 uM compound, % Activation=(Va/Vo−1)×100
SMILES,activation at 10 µM [1],EC50,Emax (fitted maximum activation),% Activation at 10 uM [1],% Max Activation (fitted maximum activation)
"CC(C)COc1cc(C(=O)Nc2ccc(C(=O)O)cn2)cc2c1CC(C)(C)O2 [Example 14, 6-[(4-Isobutoxy-2,2-dimethyl-2,3-dihydro-benzofuran-6-carbonyl)-amino]-nicotinic acid]",167%,1300 nM,115%,,
"COCC1Cc2c(Oc3ccc(C(=O)N4CCC4)cc3)cc(C(=O)Nc3ccn(C)n3)cc2O1 (stereo not drawn) [Example 208, 4-[4-(Azetidine-1-carbonyl)-phenoxy]-2-methoxymethyl-2,3-dihydro-benzofuran-6-carboxylic acid (1-methyl-1H-pyrazol-3-yl)-amide]",83.9%,710 nM,98%,,
"Cn1ccc(NC(=O)c2cc(Oc3ccc(S(C)(=O)=O)cc3)c3ccsc3c2)n1 [Example 356, 4-(4-(Methylsulfonyl)phenoxy)-N-(1-methyl-1H-pyrazol-3-yl)benzo-[b]-thiophene-6-carboxamide]",77.4%,> 10000 nM,,,
"CC(C)Oc1cc(C(=O)Nc2ccn(C)n2)cc2c1CC(Cc1ccccc1)O2 (stereo not drawn) [Example 221, 2-Benzyl-4-isopropoxy-2,3-dihydro-benzofuran-6-carboxylic acid (1-methyl-1H-pyrazol-3-yl)-amide]",8.4%,,,,
"COCC1(C)Cc2c(Oc3ccc(S(=O)(=O)C4CC4)cc3)cc(C(=O)Nc3ccn(C)n3)cc2O1 (single isomer, unassigned; (-)) [Example 247, (−)-4-(4-Cyclopropanesulfonyl-phenoxy)-2-methoxymethyl-2-methyl-2,3-dihydro-benzofuran-6-carboxylic acid (1-methyl-1H-pyrazol-3-yl)-amide]",,83 nM,,252%,254%
"COc1ccc(CC(C)Oc2cc(C(=O)Nc3ccn(C)n3)cc3c2CC(C)(C)O3)cc1 (stereo not drawn) [Example 79, 4-[2-(4-Methoxy-phenyl)-1-methyl-ethoxy]-2,2-dimethyl-2,3-dihydro-benzofuran-6-carboxylic acid (1-methyl-1H-pyrazol-3-yl)-amide]",148%,2100 nM,171%,,
"Cc1nccnc1C(C)Oc1cc(C(=O)Nc2ccn(C)n2)cc2c1CC(C)(C)O2 (stereo not drawn) [Example 83, 2,2-Dimethyl-4-[1-(3-methyl-pyrazin-2-yl)-ethoxy]-2,3-dihydro-benzofuran-6-carboxylic acid (1-methyl-1H-pyrazol-3-yl)-amide]",78.3%,8200 nM,148%,,
"Cc1nnc(NC(=O)c2cc(Oc3ccc(S(C)(=O)=O)cc3)c3c(c2)OC(C)(C)C3)s1 [Example 24, 4-(4-Methanesulfonyl-phenoxy)-2,2-dimethyl-2,3-dihydro-benzofuran-6-carboxylic acid(5-methyl-[1,3,4]thiadiazol-2-yl)-amide]",121%,1490 nM,140%,,
"Cn1ccc(NC(=O)c2cc(Oc3ccc(C(=O)N4CCC4)cc3)c3c(c2)OC(C)(C)C3)n1 [Example 35, 4-[4-(Azetidine-1-carbonyl)-phenoxy]-2,2-dimethyl-2,3-dihydro-benzofuran-6-carboxylic acid(1-methyl-1H-pyrazol-3-yl)-amide]",145%,105 nM,145%,,
"Cn1ccc(NC(=O)c2cc(Oc3ccc(S(C)(=O)=O)c(Cl)c3)c3c(c2)OC(C)(C)C3)n1 [Example 139, 4-(3-Chloro-4-methanesulfonyl-phenoxy)-2,2-dimethyl-2,3-dihydro-benzofuran-6-carboxylic acid (1-methyl-1H-pyrazol-3-yl)-amide]",242%,550 nM,254%,,
"Cc1ccc(NC(=O)c2cc(Oc3ccc(S(C)(=O)=O)cn3)c3cc(C)oc3c2)nc1 [Example 281, 2-Methyl-N-(5-methylpyridin-2-yl)-4-(5-(methylsulfonyl)pyridin-2-yloxy)-benzofuran-6-carboxamide]",92.7%,2100 nM,87%,,
"Cn1ccc(NC(=O)c2cc(OCc3cc(O)nc(-c4cnccn4)n3)c3c(c2)OC(C)(C)C3)n1 [Example 88, 4-(6-Hydroxy-2-pyrazin-2-yl-pyrimidin-4-ylmethoxy)-2,2-dimethyl-2,3-dihydro-benzofuran-6-carboxylic acid (1-methyl-1H-pyrazol-3-yl)-amide]",38.2%,,,,

# Next, values leading:
activation at 10 µM [1],EC50,Emax (fitted maximum activation),% Activation at 10 uM [1],% Max Activation (fitted maximum activation),SMILES
73.9%,2000 nM,94%,,,"COCC1Cc2c(Oc3ccc(C(=O)N4CCC4)c(F)c3)cc(C(=O)Nc3ccn(C)n3)cc2O1 (stereo not drawn) [Example 204, 4-[4-(Azetidine-1-carbonyl)-3-fluoro-phenoxy]-2-methoxymethyl-2,3-dihydro-benzofuran-6-carboxylic acid (1-methyl-1H-pyrazol-3-yl)-amide]"
135%,2100 nM,153%,,,"Cn1ccc(NC(=O)c2cc(Oc3ccc(C#N)cc3F)c3c(c2)OC(C)(C)C3)n1 [Example 31, 4-(4-Cyano-2-fluoro-phenoxy)-2,2-dimethyl-2,3-dihydro-benzofuran-6-carbo-xylic acid(1-methyl-1H-pyrazol-3-yl)-amide]"
91.3%,> 10000 nM,,,,"Cn1ccc(NC(=O)c2cc(Oc3ccc(S(C)(=O)=O)cc3)c3cc(CN4CCCC4=O)oc3c2)n1 [Example 318, N-(1-Methyl-1H-pyrazol-3-yl)-4-[4-(methylsulfonyl)phenoxy]-2-[(2-oxopyrrolidin-1-yl)methyl]-1-benzofuran-6-carboxamide]"
87%,9500 nM,164%,,,"CCOc1cc(C(=O)Nc2ccn(C)n2)cc2c1CC(C)(C)O2 [Example 92, 4-Ethoxy-2,2-dimethyl-2,3-dihydro-benzofuran-6-carboxylic acid (1-methyl-1H-pyrazol-3-yl)-amide]"
53.1%,2900 nM,69%,,,"Cc1cc2c(Oc3ccc(S(C)(=O)=O)cc3)cc(C(=O)Nc3ccc(Cl)cn3)cc2o1 [Example 260, N-(5-chloropyridin-2-yl)-2-methyl-4-(4-(methylsulfonyl)-phenoxy)benzofuran-6-carboxamide]"
203%,470 nM,206%,,,"Cn1ccc(NC(=O)c2cc(Oc3ccc(C(=O)NCC(F)F)c(F)c3)c3c(c2)OC(C)(C)C3)n1 [Example 76, 4-[4-(2,2-Difluoro-ethylcarbamoyl)-3-fluoro-phenoxy]-2,2-dimethyl-2,3-dihydro-benzofuran-6-carboxylic acid(1-methyl-1H-pyrazol-3-yl)-amide]"
164%,730 nM,174%,,,"Cn1ccc(NC(=O)c2cc(Oc3ccc(C(=O)N4CC(F)(F)C4)cc3F)c3c(c2)OC(C)(C)C3)n1 [Example 43, 4-[4-(3,3-Difluoro-azetidine-1-carbonyl)-2-fluoro-phenoxy]-2,2-dimethyl-2,3-dihydro-benzofuran-6-carboxylic acid(1-methyl-1H-pyrazol-3-yl)-amide]"
8%,,,,,"CC(C)Oc1cc(C(=O)Nc2ccn(C)n2)cc2c1CC(CNC1CC1)O2 (stereo not drawn) [Example 219, 2-Cyclopropylaminomethyl-4-isopropoxy-2,3-dihydro-benzofuran-6-carboxylic acid (1-methyl-1H-pyrazol-3-yl)-amide]"
149%,410 nM,168%,,,"CN(CCO)C(=O)c1ccc(Oc2cc(C(=O)Nc3ccn(C)n3)cc3c2CC(C)(C)O3)cc1F [Example 66, 4-{3-Fluoro-4-[(2-hydroxy-ethyl)-methyl-carbamoyl]-phenoxy}-2,2-dimethyl-2,3-dihydro-benzofuran-6-carboxylic acid(1-methyl-1H-pyrazol-3-yl)-amide]"
46.1%,1400 nM,70%,,,"Cc1ccnc(NC(=O)c2cc(Oc3ccc(S(C)(=O)=O)cc3)c3c(c2)OC(C)(C)C3)c1 [Example 23, 4-(4-Methanesulfonyl-phenoxy)-2,2-dimethyl-2,3-dihydro-benzofuran-6-carboxylic acid(4-methyl-pyridin-2-yl)-amide]"
18.2%,,,,,"Cc1ccc(NC(=O)c2cc(OC3CN(C(=O)N(C)C)C3)c3cc(C)oc3c2)nc1 [Example 324, N,N-Dimethyl-3-[(2-methyl-6-{[(5-methylpyridin-2-yl)amino]-carbonyl}-1-benzofuran-4-yl)oxy]azetidine-1-carboxamide]"
184%,100 nM,159%,,,"CN(C)S(=O)(=O)c1ccc(Oc2cc(C(=O)Nc3ccn(C)n3)cc3c2CC(C)(C)O3)cc1 [Example 122, 4-(4-Dimethylsulfamoyl-phenoxy)-2,2-dimethyl-2,3-dihydro-benzofuran-6-carboxylic acid (1-methyl-1H-pyrazol-3-yl)-amide]"
16.7%,,,,,"CC(C)Oc1cc(C(=O)Nc2ccn(C)n2)cc2c1CC(CO)O2 (stereo not drawn) [Example 215, 2-Hydroxymethyl-4-isopropoxy-2,3-dihydro-benzofuran-6-carboxylic acid (1-methyl-1H-pyrazol-3-yl)-amide]"
